The target of the test is T1, F508delCFTR (Homo sapiens, UniProt P13569, DEL508-508).
T1 construct: expressed in transfected cells; host or cells: CFBE41o- human lung derived epithelial cells (CFBE41o-F508delCFTR-HRP), doxycycline-inducible
As to the kind of experiment: Cell Surface Expression-Horse Radish Peroxidase (CSE-HRP) Assay.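 On EC50 (with co-corrector): co-corrector chromenyl benzoic acid corrector at 2 or 3 µM.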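 On Maximum % activity (without co-corrector): % of on-plate positive control chromenyl benzoic acid corrector at 2 or 3 µM.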 In kind it is cell-based. The conditions noted are these: for Maximum % activity (with co-corrector) / Emax: maximum at any tested concentration; for Emax: read-out: Maximum % activity (without co-corrector). In a few lines:
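Corrector compounds were given as 8-point 3-fold series from 20 or 30 μM, with or without a 2 μM co-corrector, for 18-24 h at 33 °C. Surface HRP was read by luminol luminescence as % of positive control; variable-Hill-slope sigmoidal fitting gave EC50 from triplicate plates.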

The mark [1] stands for this setting: test compound with co-corrector.
Setting [2] is: test compound without co-corrector.
Where [3] appears, read: test compound without co-corrector, read-out: EC50 (without co-corrector).
[4] abbreviates: test compound with co-corrector, read-out: EC50 (with co-corrector).
Setting [5] is: test compound alone, without co-corrector, read-out: EC50 (without co-corrector).
Where [6] appears, read: with co-corrector, read-out: EC50 (with co-corrector).

These results are taken from patent US10829473B2, “Modulators of the cystic fibrosis transmembrane conductance regulator protein and methods of use” (AbbVie Overseas S.Á.R.L., priority 2017, dated 2020).

Read-outs that look alike come from different tables or passages of the source. Marks after values point to notes of the source that are not given here.

T1 sequence (P13569 with tags, fused parts or gaps DEL508-508): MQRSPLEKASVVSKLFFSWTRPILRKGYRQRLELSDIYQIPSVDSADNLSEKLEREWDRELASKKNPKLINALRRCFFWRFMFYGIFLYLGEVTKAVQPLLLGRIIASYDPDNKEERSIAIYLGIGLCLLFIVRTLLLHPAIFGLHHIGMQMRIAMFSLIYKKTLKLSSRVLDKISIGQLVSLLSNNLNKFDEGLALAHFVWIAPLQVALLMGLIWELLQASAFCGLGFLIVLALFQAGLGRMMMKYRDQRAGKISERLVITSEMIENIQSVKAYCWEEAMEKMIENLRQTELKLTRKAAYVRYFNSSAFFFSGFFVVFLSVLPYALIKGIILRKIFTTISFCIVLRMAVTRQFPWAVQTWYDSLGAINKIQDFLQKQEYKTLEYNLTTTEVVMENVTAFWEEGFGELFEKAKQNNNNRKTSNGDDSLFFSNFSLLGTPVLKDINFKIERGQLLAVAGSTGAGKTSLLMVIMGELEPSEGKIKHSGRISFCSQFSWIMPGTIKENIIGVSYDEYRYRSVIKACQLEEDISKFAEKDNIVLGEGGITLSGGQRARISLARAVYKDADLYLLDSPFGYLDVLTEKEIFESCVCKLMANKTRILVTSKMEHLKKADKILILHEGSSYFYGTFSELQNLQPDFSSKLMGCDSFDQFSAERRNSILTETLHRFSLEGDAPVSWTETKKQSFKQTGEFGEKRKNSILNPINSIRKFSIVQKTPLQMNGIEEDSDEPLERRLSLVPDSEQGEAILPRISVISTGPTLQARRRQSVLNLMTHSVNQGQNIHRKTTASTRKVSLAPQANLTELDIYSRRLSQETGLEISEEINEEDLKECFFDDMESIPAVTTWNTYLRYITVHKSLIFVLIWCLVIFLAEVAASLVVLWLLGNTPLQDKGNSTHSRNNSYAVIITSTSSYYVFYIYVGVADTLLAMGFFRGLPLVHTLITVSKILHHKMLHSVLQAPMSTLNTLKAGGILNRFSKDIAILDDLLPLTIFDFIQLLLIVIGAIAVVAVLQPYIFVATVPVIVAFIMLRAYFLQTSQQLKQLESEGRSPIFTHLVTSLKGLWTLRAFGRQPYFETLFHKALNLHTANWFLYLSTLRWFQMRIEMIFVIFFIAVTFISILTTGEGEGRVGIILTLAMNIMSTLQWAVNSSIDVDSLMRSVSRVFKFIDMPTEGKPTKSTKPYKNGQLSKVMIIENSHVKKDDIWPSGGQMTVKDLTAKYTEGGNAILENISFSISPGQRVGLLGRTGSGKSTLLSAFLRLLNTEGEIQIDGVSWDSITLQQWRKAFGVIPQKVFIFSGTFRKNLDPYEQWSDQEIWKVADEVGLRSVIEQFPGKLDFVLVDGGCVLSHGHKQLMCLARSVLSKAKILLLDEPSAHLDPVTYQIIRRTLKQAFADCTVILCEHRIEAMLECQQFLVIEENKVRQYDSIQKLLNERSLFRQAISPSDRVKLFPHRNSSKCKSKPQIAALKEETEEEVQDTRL

For `CC(C)Oc1cnc(Cl)c(C2(C(=O)NS(=O)(=O)c3cccc4ncccc34)CC2)c1` [GIII-13], under setting [1], the “EC50 (with co-corrector)” value is given as “++^a”; the “Maximum % activity (with co-corrector)” value is “++ (≥150 and <350)”. Further, under setting [2], the Emax was < 50%. Further, the concentration giving a half-maximal response (EC50) under setting [3] is > 10 µM.

Regarding `CC(C)Oc1ncc(N2CCCC2)cc1C1(C(=O)NS(=O)(=O)c2cccc3ncccc23)CC1` [Example GI-62, 1-{2-[(propan-2-yl)oxy]-5-(pyrrolidin-1-yl)pyridin-3-yl}-N-(quinoline-5-sulfonyl)cyclopropane-1-carboxamide], the “Maximum % activity (with co-corrector)” value under setting [1] was “+++ (≥350)”. Moreover, the EC50 reads like this: under setting [4], < 3 µM; under setting [3], < 3 µM. Further, the Emax under setting [2] is > 150%.

In the case of `COc1ccc(C2CCC2)cc1C1(C(=O)NS(=O)(=O)c2cccc3nc(N)ccc23)CC1` [Example I-67, N-(2-aminoquinoline-5-sulfonyl)-1-(5-cyclobutyl-2-methoxyphenyl)cyclopropane-1-carboxamide], the concentration giving a half-maximal response (EC50) runs as follows: under setting [5], 3 to 10 µM; under setting [6], < 3 µM. The “Maximum % activity (with co-corrector)” value (with co-corrector) was “+++ (≥350)”. Besides, the Emax (without co-corrector) is > 150%.

As to `CC(C)Oc1ncc(Br)cc1C1(C(=O)NS(=O)(=O)c2cccc3ncccc23)CC1` [Example GI-1, 1-{5-bromo-2-[(propan-2-yl)oxy]pyridin-3-yl}-N-(quinoline-5-sulfonyl)cyclopropane-1-carboxamide], the half-maximal effective concentration (EC50) under setting [5] is < 3 µM and the concentration for a half-maximal effect (EC50) under setting [6] is < 3 µM. Also, the “Maximum % activity (with co-corrector)” value (with co-corrector) is on record as “+++ (≥350)”. Also, where the note is “without co-corrector”, the Emax is > 150%.

As to `COc1ccc(C2(C(=O)NS(=O)(=O)c3ccccc3)CC2)cc1` [Example III-5, N-(benzenesulfonyl)-1-(4-methoxyphenyl)cyclopropane-1-carboxamide], the 50% effective concentration (EC50) is, setting by setting: under setting [5], > 10 µM; under setting [6], > 10 µM. Further, under “with co-corrector”, the “Maximum % activity (with co-corrector)” value is recorded as “+ (<150)”. The Emax (without co-corrector) was < 50%.

Take `COc1ccc2c(S(=O)(=O)NC(=O)C3(c4cc(C5CC5)cnc4OC(C)C)CC3)cccc2n1` [II-95]: the 50% effective concentration (EC50) under setting [5] is < 3 µM and the concentration for a half-maximal effect (EC50) under setting [6] was < 3 µM. Besides, where the note is “with co-corrector”, the “Maximum % activity (with co-corrector)” value was “+++ (≥350)”. The Emax (without co-corrector) was > 150%.

On to `O=C(NS(=O)(=O)c1ccc(-c2ccno2)s1)C1(c2ccc(Cl)cc2Cl)CC1` [Example III-17, 1-(2,4-dichlorophenyl)-N-[5-(1,2-oxazol-5-yl)thiophene-2-sulfonyl]cyclopropane-1-carboxamide], for which the EC50 by setting is: under setting [5], > 10 µM; under setting [6], > 10 µM. For the same compound, the “Maximum % activity (with co-corrector)” value (with co-corrector) was “+ (<150)”. For the same compound, for the setting “without co-corrector”, the Emax is < 50%.

Take `CCc1cnc(N2CCOCC2)c(C2(C(=O)NS(=O)(=O)c3cccc4ncccc34)CC2)c1` [GIII-23]: under setting [1], the “Maximum % activity (with co-corrector)” value was “++ (≥150 and <350)”. Further, the EC50 by setting is: under setting [4], > 10 µM; under setting [3], > 10 µM. In addition, under setting [2], the Emax fell in the range of 50 to 150%.

In the case of `COc1cc(OC(C)C)c(C2(C(=O)NS(=O)(=O)c3cccc4nc(C)ccc34)CC2)cn1` [Example GI-18, 1-{6-methoxy-4-[(propan-2-yl)oxy]pyridin-3-yl}-N-(2-methylquinoline-5-sulfonyl)cyclopropane-1-carboxamide], the EC50 is 3 to 10 µM under setting [5] and < 3 µM under setting [6]. In addition, for the setting “with co-corrector”, the “Maximum % activity (with co-corrector)” value is recorded as “+++ (≥350)”. Moreover, the Emax (without co-corrector) is > 150%.

With `CC(C)OC1CCN(c2ncc(C3CCC3)cc2C2(C(=O)NS(=O)(=O)c3cccc4ncccc34)CC2)CC1` [Example GI-105, 1-(5-cyclobutyl-2-{4-[(propan-2-yl)oxy]piperidin-1-yl}pyridin-3-yl)-N-(quinoline-5-sulfonyl)cyclopropane-1-carboxamide], under setting [1], the “Maximum % activity (with co-corrector)” value was “+++ (≥350)”. In addition, the EC50 is < 3 µM under setting [4] and < 3 µM under setting [3]. The Emax under setting [2] is > 150%.

Turning to `COCCOc1ncc(OC)cc1C1(C(=O)NS(=O)(=O)c2cccc3nc(C)ccc23)CC1` [GII-42, 1-[5-methoxy-2-(2-methoxyethoxy)pyridin-3-yl]-N-(2-methylquinoline-5-sulfonyl)cyclopropane-1-carboxamide], the “Maximum % activity (with co-corrector)” value under setting [1] is “++ (≥150 and <350)”. The EC50 under setting [4] fell in the range of 3 to 10 µM. Further, under setting [2], the “EC50 (without co-corrector)” value was “++^a” and the Emax fell in the range of 50 to 150%.

On to `COc1cc(F)c(C(C)C)cc1C1(C(=O)NS(=O)(=O)c2cccc3ncccc23)CC1` [Example I-36, 1-[4-fluoro-2-methoxy-5-(propan-2-yl)phenyl]-N-(quinoline-5-sulfonyl)cyclopropane-1-carboxamide], for which the concentration for a half-maximal effect (EC50) is, setting by setting: under setting [5], < 3 µM; under setting [6], < 3 µM. For the same compound, for the setting “with co-corrector”, the “Maximum % activity (with co-corrector)” value is recorded as “+++ (≥350)”. For the same compound, the Emax (without co-corrector) is > 150%.

Take `COc1cc(C2(C(=O)NS(=O)(=O)c3cccc4ncccc34)CC2)c(C)cn1` [GII-13, 1-(2-methoxy-5-methylpyridin-4-yl)-N-(quinoline-5-sulfonyl)cyclopropane-1-carboxamide]: under setting [1], the “Maximum % activity (with co-corrector)” value is given as “+++ (≥350)”. Also, the EC50 is 3 to 10 µM under setting [4] and 3 to 10 µM under setting [3]. Besides, the Emax under setting [2] fell in the range of 50 to 150%.

Turning to `COc1cc(C2(C(=O)NS(=O)(=O)c3cccc4ncccc34)CC2)c(OC(C)C)cn1` [Example GI-16, 1-{2-methoxy-5-[(propan-2-yl)oxy]pyridin-4-yl}-N-(quinoline-5-sulfonyl)cyclopropane-1-carboxamide], the concentration giving a half-maximal response (EC50) runs as follows: under setting [5], 3 to 10 µM; under setting [6], < 3 µM. For the same compound, the “Maximum % activity (with co-corrector)” value (with co-corrector) is “+++ (≥350)”. Moreover, where the note is “without co-corrector”, the Emax was > 150%.

Consider `COc1ncc(C2CCC2)cc1C1(C(=O)NS(=O)(=O)c2cccc3ccccc23)CC1` [Example I-5, 1-(5-cyclobutyl-2-methoxypyridin-3-yl)-N-(naphthalene-1-sulfonyl)cyclopropane-1-carboxamide], for which the EC50 runs as follows: under setting [5], 3 to 10 µM; under setting [6], < 3 µM. Further, under “with co-corrector”, the “Maximum % activity (with co-corrector)” value is listed as “+++ (≥350)”. The Emax (without co-corrector) was > 150%.

Take `O=C(NS(=O)(=O)c1cccc2ncccc12)C1(c2cccc(Br)c2)CC1` [Example III-93, 1-(3-bromophenyl)-N-(quinoline-5-sulfonyl)cyclopropane-1-carboxamide]: the EC50 is 3 to 10 µM under setting [5] and 3 to 10 µM under setting [6]. For the same compound, the “Maximum % activity (with co-corrector)” value (with co-corrector) is given as “+++ (≥350)”. The Emax (without co-corrector) is > 150%.

For `O=C(NS(=O)(=O)c1cccc2ncccc12)C1(c2cc(Cl)cnc2N2CCCC2)CC1` [Example GI-35, 1-[5-chloro-2-(pyrrolidin-1-yl)pyridin-3-yl]-N-(quinoline-5-sulfonyl)cyclopropane-1-carboxamide], under setting [1], the “Maximum % activity (with co-corrector)” value is “+++ (≥350)”. Besides, the EC50 was < 3 µM under setting [4] and 3 to 10 µM under setting [3]. For the same compound, the Emax under setting [2] was > 150%.

As to `COc1cnc(OCC2CC2)c(C2(C(=O)NS(=O)(=O)c3cccc4ncccc34)CC2)c1` [Example GI-87, 1-[2-(cyclopropylmethoxy)-5-methoxypyridin-3-yl]-N-(quinoline-5-sulfonyl)cyclopropane-1-carboxamide], the “Maximum % activity (with co-corrector)” value under setting [1] is “+++ (≥350)”. Further, the EC50 reads like this: under setting [4], < 3 µM; under setting [3], 3 to 10 µM. Besides, the Emax under setting [2] was > 150%.

The term EC50 denotes the concentration needed to bring the measured effect to its halfway point.
